{"source": "patent US20070281911A1", "about": "“Use of Adefovir or Tenofovir for Inhibiting Mmtv-Like Viruses Involved in Breast Cancer and Primary Biliary Cirrhosis” (GILEAD SCIENCES INC., priority 2004, published 2007)", "origin": "cited, not measured here", "target": "MMTV RT enzyme (Mouse mammary tumor virus, UniProt P03365)", "sequence (P03365 861-1437)": "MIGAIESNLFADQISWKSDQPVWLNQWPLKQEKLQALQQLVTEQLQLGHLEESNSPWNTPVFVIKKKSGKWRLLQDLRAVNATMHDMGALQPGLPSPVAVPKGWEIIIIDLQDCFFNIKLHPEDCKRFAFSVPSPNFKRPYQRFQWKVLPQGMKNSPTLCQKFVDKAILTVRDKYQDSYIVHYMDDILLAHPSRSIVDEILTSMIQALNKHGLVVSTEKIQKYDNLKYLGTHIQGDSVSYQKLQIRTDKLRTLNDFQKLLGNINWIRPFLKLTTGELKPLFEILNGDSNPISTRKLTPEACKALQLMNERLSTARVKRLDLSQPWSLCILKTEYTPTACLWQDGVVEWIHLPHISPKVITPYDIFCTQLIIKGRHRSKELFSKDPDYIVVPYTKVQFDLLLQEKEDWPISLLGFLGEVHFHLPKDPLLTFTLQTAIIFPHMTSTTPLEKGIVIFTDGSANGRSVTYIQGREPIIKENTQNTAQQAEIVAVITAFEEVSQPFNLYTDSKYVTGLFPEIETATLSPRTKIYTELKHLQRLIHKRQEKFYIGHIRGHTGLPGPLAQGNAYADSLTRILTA", "data": [{"compound": "Cc1cn([C@H]2C[C@H](N=[N+]=[N-])[C@@H](COP(=O)(O)OP(=O)(O)OP(=O)(O)O)O2)c(=O)[nH]c1=O", "note": "[AZTppp]", "values": [{"measurement": "direct inhibition of MMTV RT enzyme compared with HIV RT enzyme", "result": "as efficiently as the HIV RT enzyme"}]}]}
